Results reported in patent EP0726263A2, “Herbicidal (1,3,4)oxadiazoles and thiadiazoles” (American Cyanamid Company, priority 1995, dated 1996).

Columns and labels:
Format in all cases: in vivo
Abutilon theophrasti [1] = assay: Herbicidal activity, preemergence test; conditions: pre; sprayed onto soil, 800 g of active material per hectare; evaluated 3 weeks after treatment
Method: (§1) To evaluate their herbicidal activity, compounds according to the invention are tested using a representative range of plants: TRZAW Triticum aestivum HORVW Hordeum vulgare ZEAMX Zea mays GOSHI Gossypium hirsutum HELAN Helianthus annuus GLYMA Glycine max ALOMY Alopecurus myosuroides SETVI Setaria viridis ECHCG Echinochloa crus-galli GALAP Galium aparine STEME Stellaria media VERPE Veronica persica VIOAR Viola arvensis IPOHE Ipomoea hederacea LAMPU Lamium purpureum PAPRH Papaver rhoeas MATIN Matricaria inodora AMARE Amaranthus retroflexus ABUTH Abutilon theophrasti AMBEL Ambrosia artemisifolia CHEAL Chenopodium album
(§2) The tests fall into two categories, preemergence and postemergence. The preemergence tests involve spraying a liquid formulation of the compound onto the soil in which the seeds have recently been sown. The postemergence tests involve spraying a liquid formulation of the compound onto seedling plants.
(§3) The soil used in the tests is a prepared horticultural loam.
(§4) The formulations used in the tests are prepared from solutions of the test compounds in acetone containing 0.4% by weight of an alkylphenol/ethylene oxide condensate available under the trade mark TRITON X-155. These acetone solutions are diluted with water and the resulting formulations applied at dosage levels corresponding to 800 g of active material per hectare in a volume equivalent to 900 litres per hectare.
(§5) In the preemergence tests untreated sown soil and in the postemergence tests untreated soil bearing seedling plants are used as controls.
(§6) Results of herbicide evaluation are expressed on a rating scale (0-9). The scale is based upon a visual observation of plant stand, vigor, malformation, size, chlorosis, and general plant appearance as compared to a control. Preemergence and postemergence treatments are evaluated at 3 and 2 weeks after treatment, respectively.

Stellaria media [2] = assay: Herbicidal activity, preemergence test; conditions: pre; sprayed onto soil, 800 g of active material per hectare; evaluated 3 weeks after treatment
Method: as §1, §2, §3, §4, §5, §6

Ipomoea hederacea [3] = assay: Herbicidal activity, preemergence test; conditions: pre; sprayed onto soil, 800 g of active material per hectare; evaluated 3 weeks after treatment
Method: as §1, §2, §3, §4, §5, §6

Hordeum vulgare [4] = assay: Herbicidal activity, preemergence test; conditions: pre; sprayed onto soil, 800 g of active material per hectare; evaluated 3 weeks after treatment
Method: as §1, §2, §3, §4, §5, §6

Ambrosia artemisifolia [5] = assay: Herbicidal activity, preemergence test; conditions: pre; sprayed onto soil, 800 g of active material per hectare; evaluated 3 weeks after treatment
Method: as §1, §2, §3, §4, §5, §6

Papaver rhoeas [6] = assay: Herbicidal activity, preemergence test; conditions: pre; sprayed onto soil, 800 g of active material per hectare; evaluated 3 weeks after treatment
Method: as §1, §2, §3, §4, §5, §6

Veronica persica [7] = assay: Herbicidal activity, preemergence test; conditions: pre; sprayed onto soil, 800 g of active material per hectare; evaluated 3 weeks after treatment
Method: as §1, §2, §3, §4, §5, §6

Lamium purpureum [8] = assay: Herbicidal activity, preemergence test; conditions: pre; sprayed onto soil, 800 g of active material per hectare; evaluated 3 weeks after treatment
Method: as §1, §2, §3, §4, §5, §6

Amaranthus retroflexus [9] = assay: Herbicidal activity, preemergence test; conditions: pre; sprayed onto soil, 800 g of active material per hectare; evaluated 3 weeks after treatment
Method: as §1, §2, §3, §4, §5, §6

Gossypium hirsutum [10] = assay: Herbicidal activity, preemergence test; conditions: pre; sprayed onto soil, 800 g of active material per hectare; evaluated 3 weeks after treatment
Method: as §1, §2, §3, §4, §5, §6

Setaria viridis [11] = assay: Herbicidal activity, preemergence test; conditions: pre; sprayed onto soil, 800 g of active material per hectare; evaluated 3 weeks after treatment
Method: as §1, §2, §3, §4, §5, §6

Chenopodium album [12] = assay: Herbicidal activity, preemergence test; conditions: pre; sprayed onto soil, 800 g of active material per hectare; evaluated 3 weeks after treatment
Method: as §1, §2, §3, §4, §5, §6

Matricaria inodora [13] = assay: Herbicidal activity, preemergence test; conditions: pre; sprayed onto soil, 800 g of active material per hectare; evaluated 3 weeks after treatment
Method: as §1, §2, §3, §4, §5, §6

Triticum aestivum [14] = assay: Herbicidal activity, preemergence test; conditions: pre; sprayed onto soil, 800 g of active material per hectare; evaluated 3 weeks after treatment
Method: as §1, §2, §3, §4, §5, §6

Zea mays [15] = assay: Herbicidal activity, preemergence test; conditions: pre; sprayed onto soil, 800 g of active material per hectare; evaluated 3 weeks after treatment
Method: as §1, §2, §3, §4, §5, §6

Glycine max [16] = assay: Herbicidal activity, preemergence test; conditions: pre; sprayed onto soil, 800 g of active material per hectare; evaluated 3 weeks after treatment
Method: as §1, §2, §3, §4, §5, §6

Alopecurus myosuroides [17] = assay: Herbicidal activity, preemergence test; conditions: pre; sprayed onto soil, 800 g of active material per hectare; evaluated 3 weeks after treatment
Method: as §1, §2, §3, §4, §5, §6

Galium aparine [18] = assay: Herbicidal activity, preemergence test; conditions: pre; sprayed onto soil, 800 g of active material per hectare; evaluated 3 weeks after treatment
Method: as §1, §2, §3, §4, §5, §6

Abutilon theophrasti [19] = assay: Herbicidal activity, postemergence test; conditions: post; sprayed onto seedling plants, 800 g of active material per hectare; evaluated 2 weeks after treatment
Method: as §1, §2, §3, §4, §5, §6

Stellaria media [20] = assay: Herbicidal activity, postemergence test; conditions: post; sprayed onto seedling plants, 800 g of active material per hectare; evaluated 2 weeks after treatment
Method: as §1, §2, §3, §4, §5, §6

Ipomoea hederacea [21] = assay: Herbicidal activity, postemergence test; conditions: post; sprayed onto seedling plants, 800 g of active material per hectare; evaluated 2 weeks after treatment
Method: as §1, §2, §3, §4, §5, §6

Hordeum vulgare [22] = assay: Herbicidal activity, postemergence test; conditions: post; sprayed onto seedling plants, 800 g of active material per hectare; evaluated 2 weeks after treatment
Method: as §1, §2, §3, §4, §5, §6

Ambrosia artemisifolia [23] = assay: Herbicidal activity, postemergence test; conditions: post; sprayed onto seedling plants, 800 g of active material per hectare; evaluated 2 weeks after treatment
Method: as §1, §2, §3, §4, §5, §6

Papaver rhoeas [24] = assay: Herbicidal activity, postemergence test; conditions: post; sprayed onto seedling plants, 800 g of active material per hectare; evaluated 2 weeks after treatment
Method: as §1, §2, §3, §4, §5, §6

Veronica persica [25] = assay: Herbicidal activity, postemergence test; conditions: post; sprayed onto seedling plants, 800 g of active material per hectare; evaluated 2 weeks after treatment
Method: as §1, §2, §3, §4, §5, §6

Lamium purpureum [26] = assay: Herbicidal activity, postemergence test; conditions: post; sprayed onto seedling plants, 800 g of active material per hectare; evaluated 2 weeks after treatment
Method: as §1, §2, §3, §4, §5, §6

Amaranthus retroflexus [27] = assay: Herbicidal activity, postemergence test; conditions: post; sprayed onto seedling plants, 800 g of active material per hectare; evaluated 2 weeks after treatment
Method: as §1, §2, §3, §4, §5, §6

Gossypium hirsutum [28] = assay: Herbicidal activity, postemergence test; conditions: post; sprayed onto seedling plants, 800 g of active material per hectare; evaluated 2 weeks after treatment
Method: as §1, §2, §3, §4, §5, §6

Setaria viridis [29] = assay: Herbicidal activity, postemergence test; conditions: post; sprayed onto seedling plants, 800 g of active material per hectare; evaluated 2 weeks after treatment
Method: as §1, §2, §3, §4, §5, §6

Chenopodium album [30] = assay: Herbicidal activity, postemergence test; conditions: post; sprayed onto seedling plants, 800 g of active material per hectare; evaluated 2 weeks after treatment
Method: as §1, §2, §3, §4, §5, §6

Matricaria inodora [31] = assay: Herbicidal activity, postemergence test; conditions: post; sprayed onto seedling plants, 800 g of active material per hectare; evaluated 2 weeks after treatment
Method: as §1, §2, §3, §4, §5, §6

Triticum aestivum [32] = assay: Herbicidal activity, postemergence test; conditions: post; sprayed onto seedling plants, 800 g of active material per hectare; evaluated 2 weeks after treatment
Method: as §1, §2, §3, §4, §5, §6

Zea mays [33] = assay: Herbicidal activity, postemergence test; conditions: post; sprayed onto seedling plants, 800 g of active material per hectare; evaluated 2 weeks after treatment
Method: as §1, §2, §3, §4, §5, §6

Glycine max [34] = assay: Herbicidal activity, postemergence test; conditions: post; sprayed onto seedling plants, 800 g of active material per hectare; evaluated 2 weeks after treatment
Method: as §1, §2, §3, §4, §5, §6

Alopecurus myosuroides [35] = assay: Herbicidal activity, postemergence test; conditions: post; sprayed onto seedling plants, 800 g of active material per hectare; evaluated 2 weeks after treatment
Method: as §1, §2, §3, §4, §5, §6

Galium aparine [36] = assay: Herbicidal activity, postemergence test; conditions: post; sprayed onto seedling plants, 800 g of active material per hectare; evaluated 2 weeks after treatment
Method: as §1, §2, §3, §4, §5, §6

Row | Structure (SMILES) | ABUTH control rating (0-9) (Abutilon theophrasti [1]) | STEME control rating (0-9) (Stellaria media [2]) | IPOHE control rating (0-9) (Ipomoea hederacea [3]) | HORVW control rating (0-9) (Hordeum vulgare [4]) | AMBEL control rating (0-9) (Ambrosia artemisifolia [5]) | PAPRH control rating (0-9) (Papaver rhoeas [6]) | VERPE control rating (0-9) (Veronica persica [7]) | LAMPU control rating (0-9) (Lamium purpureum [8]) | AMARE control rating (0-9) (Amaranthus retroflexus [9]) | GOSHI control rating (0-9) (Gossypium hirsutum [10]) | SETVI control rating (0-9) (Setaria viridis [11]) | CHEAL control rating (0-9) (Chenopodium album [12]) | MATIN control rating (0-9) (Matricaria inodora [13]) | TRZAW control rating (0-9) (Triticum aestivum [14]) | ZEAMX control rating (0-9) (Zea mays [15]) | GLXMA control rating (0-9) (Glycine max [16]) | ALOMY control rating (0-9) (Alopecurus myosuroides [17]) | GALAP control rating (0-9) (Galium aparine [18]) | ABUTH control rating (0-9) (Abutilon theophrasti [19]) | STEME control rating (0-9) (Stellaria media [20]) | further results
1 | C[C@H](NC(=O)c1nnc(-c2ccc(C(C)(C)C)cc2)o1)c1ccccc1 [Example 16] | 1 (trace effect) | 6 (herbicidal effect) | 1 (trace effect) | 0 (no effect) | 3 (moderate effect) | 9 (complete kill) | 9 (complete kill) | 8 (approaching complete kill) | 9 (complete kill) | 0 (no effect) | 8 (approaching complete kill) | 7 (good herbicidal effect) | 9 (complete kill) | 0 (no effect) | 0 (no effect) | 0 (no effect) | 0 (no effect) | 0 (no effect) | 8 (approaching complete kill) | 9 (complete kill) | IPOHE control rating (0-9) (Ipomoea hederacea [21]): 8 (approaching complete kill); HORVW control rating (0-9) (Hordeum vulgare [22]): 4 (injury); AMBEL control rating (0-9) (Ambrosia artemisifolia [23]): 8 (approaching complete kill); PAPRH control rating (0-9) (Papaver rhoeas [24]): 7 (good herbicidal effect); VERPE control rating (0-9) (Veronica persica [25]): 9 (complete kill); LAMPU control rating (0-9) (Lamium purpureum [26]): 9 (complete kill); AMARE control rating (0-9) (Amaranthus retroflexus [27]): 9 (complete kill); GOSHI control rating (0-9) (Gossypium hirsutum [28]): 9 (complete kill); SETVI control rating (0-9) (Setaria viridis [29]): 9 (complete kill); CHEAL control rating (0-9) (Chenopodium album [30]): 7 (good herbicidal effect); MATIN control rating (0-9) (Matricaria inodora [31]): 9 (complete kill); TRZAW control rating (0-9) (Triticum aestivum [32]): 2 (slight effect); ZEAMX control rating (0-9) (Zea mays [33]): 3 (moderate effect); GLXMA control rating (0-9) (Glycine max [34]): 4 (injury); ALOMY control rating (0-9) (Alopecurus myosuroides [35]): 3 (moderate effect); GALAP control rating (0-9) (Galium aparine [36]): 7 (good herbicidal effect)
2 | C[C@H](NC(=O)c1nnc(C=Cc2ccccc2)o1)c1ccccc1 [Example 17] | 0 (no effect) | 0 (no effect) | 0 (no effect) | 0 (no effect) | 0 (no effect) | 5 (definite injury) | 3 (moderate effect) | 0 (no effect) | 0 (no effect) | 9 (complete kill) | 0 (no effect) | 0 (no effect) | 0 (no effect) | 0 (no effect) | 0 (no effect) | 0 (no effect) | 0 (no effect) | 0 (no effect) | 1 (trace effect) | 0 (no effect) | IPOHE control rating (0-9) (Ipomoea hederacea [21]): 1 (trace effect); HORVW control rating (0-9) (Hordeum vulgare [22]): 0 (no effect); AMBEL control rating (0-9) (Ambrosia artemisifolia [23]): 0 (no effect); PAPRH control rating (0-9) (Papaver rhoeas [24]): 5 (definite injury); VERPE control rating (0-9) (Veronica persica [25]): 3 (moderate effect); LAMPU control rating (0-9) (Lamium purpureum [26]): 6 (herbicidal effect); AMARE control rating (0-9) (Amaranthus retroflexus [27]): 4 (injury); GOSHI control rating (0-9) (Gossypium hirsutum [28]): 3 (moderate effect); SETVI control rating (0-9) (Setaria viridis [29]): 0 (no effect); CHEAL control rating (0-9) (Chenopodium album [30]): 5 (definite injury); MATIN control rating (0-9) (Matricaria inodora [31]): 0 (no effect); TRZAW control rating (0-9) (Triticum aestivum [32]): 0 (no effect); ZEAMX control rating (0-9) (Zea mays [33]): 1 (trace effect); GLXMA control rating (0-9) (Glycine max [34]): 0 (no effect); ALOMY control rating (0-9) (Alopecurus myosuroides [35]): 0 (no effect); GALAP control rating (0-9) (Galium aparine [36]): 2 (slight effect)
